# Measured values taken from US8435990B2, “Dihydropyrimidone amides as P2X7 modulators” (Roche Palo Alto LLC, priority 2009, dated 2013).
# Target: T1, human P2X7 (Homo sapiens, UniProt Q99572)
# T1 construct: 1321N1 cells stably expressing the full length human P2X7 gene (1321N1-hP2X7)
# T1 sequence (Q99572 1-595): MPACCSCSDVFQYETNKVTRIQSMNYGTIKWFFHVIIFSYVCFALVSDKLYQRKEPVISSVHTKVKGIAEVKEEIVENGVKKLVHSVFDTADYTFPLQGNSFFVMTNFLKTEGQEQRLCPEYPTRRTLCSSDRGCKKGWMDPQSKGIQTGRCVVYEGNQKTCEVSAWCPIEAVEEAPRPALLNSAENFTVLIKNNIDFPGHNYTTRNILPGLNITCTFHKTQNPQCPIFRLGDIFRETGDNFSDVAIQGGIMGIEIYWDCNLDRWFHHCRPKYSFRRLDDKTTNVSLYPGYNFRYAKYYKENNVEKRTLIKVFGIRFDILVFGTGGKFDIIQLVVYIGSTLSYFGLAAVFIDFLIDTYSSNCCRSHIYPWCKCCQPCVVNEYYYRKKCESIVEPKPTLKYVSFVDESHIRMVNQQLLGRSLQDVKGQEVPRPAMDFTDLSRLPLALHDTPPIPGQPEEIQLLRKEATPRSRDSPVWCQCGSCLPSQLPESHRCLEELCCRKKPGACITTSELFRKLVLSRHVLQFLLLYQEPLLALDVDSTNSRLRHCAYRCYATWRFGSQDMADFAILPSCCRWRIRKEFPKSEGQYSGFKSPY
# Assay: P2X7 modulator pIC50 of Table 1 (assay not given; Intracellular Calcium Flux (FLIPR) Assay assumed)
# Assay type: cell-based
# Description: Intracellular Calcium Flux (FLIPR) Assay
# Stock solutions of compounds were prepared from powders as a 10 mM DMSO stock solution. These solutions were stored at RT during the two week period of these experiments to prevent freeze-thaw of the DMSO stocks. The DMSO stocks were added to the appropriate assay buffer at a concentration of 10 μM, and then diluted serially to the final concentrations that were tested. No observable precipitate was formed at any time during this process. The aqueous solutions of compounds as well as ATP (Sigma A7699) and BzATP (Sigma B6396) were prepared fresh for each day of experiment.
# 1321N1 cells stably expressing the full length human P2X7 gene (1321N1-hP2X7) and HEK293 cells stably expressing the full length rat P2X7 gene (HEK293-rP2X7) were obtained from the Roche Cell Culture Facility. 1321N1-hP2X7 cells were grown in Dulbecco's Modified Eagle's Medium (DMEM) high glucose supplemented with 10% FBS and 250 μg/mL G418. HEK293-rP2X7 cells were grown in DMEM/F-12 supplemented with 10% FBS, 1 mM CaCl2, 2 mM MgCl2, 2 mM L-Glutamine and 500 μg/ml G418. Cells were split such that they never became >70% confluent.
# On the day prior to the experiment, 1321N1-hP2X7 or HEK293-rP2X7 cells were released into suspension with calcium-free PBS+Versene and washed by centrifugation with calcium-free PBS to remove the Versene. Cells were resuspended in growth medium at a density of 2.5×10^5 cells/mL and seeded into black walled, clear bottom 96 well plates (50,000 cells/well) approximately 18 hr prior to intracellular calcium flux experiments.
# On the day of the experiment, plates were washed with FLIPR buffer (calcium- and magnesium-free Hank's Balanced Salt Solution (HBSS) supplemented with 10 mM Hepes, 2.5 mM probenecid and 2 mM calcium chloride) using a BIO-TEK 96 channel plate washer and incubated with […] fluo-3 dye at 37° C. for one hr. The dye was then removed by plate washing and the cells were allowed to equilibrate for 20 min at room temperature with antagonist or vehicle (FLIPR buffer). Agonist (100 μM BzATP final concentration for hP2X7; 5μM BzATP final concentration or rP2X7) was added online with the FLIPR and fluorescence measurements made at 1 sec intervals for 60 sec followed by 3 sec intervals for a further 4 min (5 min total). A final addition of 5 μM ionomycin was made and the maximal BzATP-evoked fluorescence normalized to the maximal ionomycin-evoked fluorescence.
row,Compound,IC50
1,"COc1cc(C)c(NC(=O)C2=CNC(=O)NC2c2ccc(F)cc2)cc1OC (centres unmarked) [Compound 1, 4-(4-Fluoro-phenyl)-2-oxo-1,2,3,4-tetrahydro-pyrimidine-5-carboxylic acid (4,5-dimethoxy-2-methyl-phenyl)-amide]",34.7 nM
2,"Cc1cc(-c2ccc(C)c(NC(=O)C3=CN(C)C(=O)N[C@H]3c3ccc(F)cc3)c2)n[nH]1 [Compound 7, (S)-4-(4-Fluoro-phenyl)-1-methyl-2-oxo-1,2,3,4-tetrahydro-pyrimidine-5-carboxylic acid [2-methyl-5-(5-methyl-1H-pyrazol-3-yl)-phenyl]-amide]",35.1 nM
3,"COc1cc(C)c(NC(=O)C2=CN(C)C(=O)N(C)C2c2ccc(F)cc2)cc1OC (centres unmarked) [Compound 9, 4-(4-Fluoro-phenyl)-1,3-dimethyl-2-oxo-1,2,3,4-tetrahydro-pyrimidine-5-carboxylic acid (4,5-dimethoxy-2-methyl-phenyl)-amide]",196 nM
4,"Cc1ccc2ncccc2c1NC(=O)C1=CN(C)C(=O)N[C@H]1c1ccc(F)cc1 [Compound 11, (S)-4-(4-Fluoro-phenyl)-1-methyl-2-oxo-1,2,3,4-tetrahydro-pyrimidine-5-carboxylic acid (6-methyl-quinolin-5-yl)-amide]",120 nM
5,"COc1cc(C)c(NC(=O)C2=CN(CCO)C(=O)NC2c2ccc(F)cc2)cc1OC (centres unmarked) [Compound 12, 4-(4-Fluoro-phenyl)-1-(2-hydroxy-ethyl)-2-oxo-1,2,3,4-tetrahydro-pyrimidine-5-carboxylic acid (4,5-dimethoxy-2-methyl-phenyl)-amide]",111 nM
6,"Cc1cnn(-c2ccc(C)c(NC(=O)C3=CN(C)C(=O)N[C@H]3c3ccc(F)cc3)c2)c1 [Compound 15, (S)-4-(4-Fluoro-phenyl)-1-methyl-2-oxo-1,2,3,4-tetrahydro-pyrimidine-5-carboxylic acid [2-methyl-5-(4-methyl-pyrazol-1-yl)-phenyl]-amide]",14.1 nM
7,"CCN1C=C(C(=O)Nc2cc(OCCO)c(Cl)cc2C)[C@H](c2ccc(F)cc2)NC1=O [Compound 17, (S)-1-Ethyl-4-(4-fluoro-phenyl)-2-oxo-1,2,3,4-tetrahydro-pyrimidine-5-carboxylic acid [4-chloro-5-(2-hydroxy-ethoxy)-2-methyl-phenyl]-amide]",24 nM
8,"Cc1ccc(-c2nnc(C)n2C)cc1NC(=O)C1=CN(C)C(=O)N[C@H]1c1ccc(F)cc1 [Compound 18, (S)-4-(4-Fluoro-phenyl)-1-methyl-2-oxo-1,2,3,4-tetrahydro-pyrimidine-5-carboxylic acid [5-(4,5-dimethyl-4H-[1,2,4]triazol-3-yl)-2-methyl-phenyl]-amide]",22.1 nM
9,"Cc1ccc(-c2cc(C)n(C[C@@H](O)CO)n2)cc1NC(=O)C1=CN(C)C(=O)N[C@H]1c1ccc(F)cc1 [Compound 19, (S)-4-(4-Fluoro-phenyl)-1-methyl-2-oxo-1,2,3,4-tetrahydropyrimidine-5-carboxylic acid {5-[1-((R)-2,3-dihydroxy-propyl)-5-methyl-1H-pyrazol-3-yl]-2-methyl-phenyl}-amide]",22.9 nM
10,"Cc1c(NC(=O)C2=CN(C)C(=O)N[C@H]2c2ccc(F)cc2)cccc1-c1ccn[nH]1 [Compound 23, (S)-4-(4-Fluoro-phenyl)-1-methyl-2-oxo-1,2,3,4-tetrahydro-pyrimidine-5-carboxylic acid [2-methyl-3-(2H-pyrazol-3-yl)-phenyl]-amide]",184 nM

# More lines, now with the values ahead:
row,IC50,Compound
1,41.2 nM,"COc1cc(C)c(NC(=O)C2=CN(C)C(=O)NC2c2ccc(F)cc2)cc1OC (centres unmarked) [Compound 2, 4-(4-Fluoro-phenyl)-1-methyl-2-oxo-1,2,3,4-tetrahydro-pyrimidine-5-carboxylic acid (4,5-dimethoxy-2-methyl-phenyl)-amide]"
2,173 nM,"Cc1cc(-c2ccc(C)c(NC(=O)C3=CNC(=O)N[C@@H]3c3ccc(F)cc3)c2)n[nH]1 [Compound 3, (R)-4-(4-Fluoro-phenyl)-2-oxo-1,2,3,4-tetrahydro-pyrimidine-5-carboxylic acid [2-methyl-5-(5-methyl-1H-pyrazol-3-yl)-phenyl]-amide]"
3,59.8 nM,"COc1cc(C)c(NC(=O)C2=CNC(=O)N[C@H]2c2ccc(F)cc2)cc1OC [Compound 4, (S)-4-(4-Fluoro-phenyl)-2-oxo-1,2,3,4-tetrahydro-pyrimidine-5-carboxylic acid (4,5-dimethoxy-2-methyl-phenyl)-amide]"
4,19.7 nM,"Cc1cc(-c2ccc(C)c(NC(=O)C3=CNC(=O)N[C@H]3c3ccc(F)cc3)c2)n[nH]1 [Compound 5, (S)-4-(4-Fluoro-phenyl)-2-oxo-1,2,3,4-tetrahydro-pyrimidine-5-carboxylic acid [2-methyl-5-(5-methyl-1H-pyrazol-3-yl)-phenyl]-amide]"
5,35.1 nM,"COc1cc(C)c(NC(=O)C2=CN(C)C(=O)N[C@H]2c2ccc(F)cc2)cc1OC [Compound 6, (S)-4-(4-Fluoro-phenyl)-1-methyl-2-oxo-1,2,3,4-tetrahydro-pyrimidine-5-carboxylic acid (4,5-dimethoxy-2-methyl-phenyl)-amide]"
6,22.9 nM,"Cc1cc(Cl)c(OCCO)cc1NC(=O)C1=CN(C)C(=O)N[C@H]1c1ccc(F)cc1 [Compound 8, (S)-4-(4-Fluoro-phenyl)-1-methyl-2-oxo-1,2,3,4-tetrahydro-pyrimidine-5-carboxylic acid [4-chloro-5-(2-hydroxy-ethoxy)-2-methyl-phenyl]-amide]"
7,359 nM,"COc1cc(C)c(NC(=O)C2=CNC(=O)N[C@@H]2c2ccc(F)cc2)cc1OC [Compound 10, (R)-4-(4-Fluoro-phenyl)-2-oxo-1,2,3,4-tetrahydro-pyrimidine-5-carboxylic acid (4,5-dimethoxy-2-methyl-phenyl)-amide]"
8,85.1 nM,"COc1cc(C)c(NC(=O)C2=CNC(=O)N(C)C2c2ccc(F)cc2)cc1OC (centres unmarked) [Compound 13, 4-(4-Fluoro-phenyl)-3-methyl-2-oxo-1,2,3,4-tetrahydro-pyrimidine-5-carboxylic acid (4,5-dimethoxy-2-methyl-phenyl)-amide]"
9,57.9 nM,"Cc1cc(-c2ccc(C)c(NC(=O)C3=CN(C)C(=O)NC3c3cccc(F)c3)c2)n[nH]1 (centres unmarked) [Compound 14, 4-(3-Fluoro-phenyl)-1-methyl-2-oxo-1,2,3,4-tetrahydro-pyrimidine-5-carboxylic acid [2-methyl-5-(5-methyl-1H-pyrazol-3-yl)-phenyl]-amide]"
10,9.23 nM,"Cc1cc(F)c(OCCO)cc1NC(=O)C1=CN(C)C(=O)N[C@H]1c1ccc(F)cc1 [Compound 16, (S)-4-(4-Fluoro-phenyl)-1-methyl-2-oxo-1,2,3,4-tetrahydro-pyrimidine-5-carboxylic acid [4-fluoro-5-(2-hydroxy-ethoxy)-2-methyl-phenyl]-amide]"
11,88.1 nM,"Cc1ccc2c(NC(=O)C3=CN(C)C(=O)N[C@H]3c3ccc(F)cc3)c(C)ccc2n1 [Compound 21, (S)-4-(4-Fluoro-phenyl)-1-methyl-2-oxo-1,2,3,4-tetrahydro-pyrimidine-5-carboxylic acid (2,6-dimethyl-quinolin-5-yl)-amide]"
12,11.5 nM,"Cc1ccc(-c2ccnn(C)c2=O)cc1NC(=O)C1=CN(C)C(=O)N[C@H]1c1ccc(F)cc1 [Compound 22, (S)-4-(4-Fluoro-phenyl)-1-methyl-2-oxo-1,2,3,4-tetrahydro-pyrimidine-5-carboxylic acid [2-methyl-5-(2-methyl-3-oxo-2,3-dihydro-pyridazin-4-yl)-phenyl]-amide]"
13,50.7 nM,"COC[C@H](O)Cn1nc(-c2ccc(C)c(NC(=O)C3=CN(C)C(=O)N[C@H]3c3ccc(F)cc3)c2)cc1C [Compound 24, (S)-4-(4-Fluoro-phenyl)-1-methyl-2-oxo-1,2,3,4-tetrahydro-pyrimidine-5-carboxylic acid {5-[1-((R)-2-hydroxy-3-methoxy-propyl)-5-methyl-1H-pyrazol-3-yl]-2-methyl-phenyl}-amide]"
